# Measurements from patent US20220304978A1, “INHIBITING MESANGIAL CELL ACTIVATION” (Chinook Therapeutics, Inc., priority 2019, published 2022).
# Tested on: ET-1 stimulated HRMC
# Test: Hallmark gene set enrichment in ET-1 stimulated HRMC treated with atrasentan
# Conditions: g-ddY and HRMC model systems; HRMC: atrasentan 1 nM and 25 nM with ET-1
smiles,measurement,value
"CCCCN(CCCC)C(=O)CN1C[C@H](c2ccc3c(c2)OCO3)[C@@H](C(=O)O)[C@@H]1c1ccc(OC)cc1 [atrasentan, (2R,3R,4S)-4-(1,3-benzodioxol-5-yl)-1-[2-(dibutylamino)-2-oxoethyl]-2-(4-methoxyphenyl)pyrrolidine-3-carboxylic acid]",expression of hallmark gene sets (negative enrichment scores),under-expression
